The values below come from PubChem BioAssay AID1959 (Broad Institute, 2009).

Active and inactive are the calls of the source.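 Rule for the calls: active = growth-inhibition EC50 no more than tenfold above the top tested dose; inconclusive = flat fit between 30% and 70% inhibition, or unreliable fit; inactive = EC50 more than tenfold above the top tested dose.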 Bounds are passed on as bounds.

This experiment concerns E. coli NEB5alpha growth, BacTiter-Glo luminescence, 4 h. As to the kind of experiment: Escherichia coli growth inhibition, dose response, counter-screen for MEX-5/POS-1 RNA-binding inhibitor project, luminescence, NEB5alpha (AID 1959).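 Note: pUC19-transformed ampicillin-resistant cells grown in LB with ampicillin.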 For orientation: Counterscreens check selectivity or assay interference.
The EC50 is the concentration that produces a half-maximal response. As for `CSc1sccc1/C=C(/C#N)C(=O)c1ccco1`, the EC50 was > 11 µM (inactive).
For the molecule `CC1=CC(C)(C)N2C(=O)C3(C(C#N)=C(N)OC4=C3C(=O)CC(C)(C)C4)c3cc(C)cc1c32` (configuration not stated), the EC50 was > 11 µM (inactive).
With `COc1ccc2nc3ccccc3nc2c1NC(=O)c1ccc(Cl)cc1Cl` the figure was > 11 µM (inactive).
For the molecule `CN(C)CCCN(C(=O)/C=C/c1cccs1)c1nc2ccc(F)cc2s1`, the EC50 is > 11 µM (inactive).
Consider `CC(=O)Nc1cccc(Oc2nc(-c3ccccn3)nc3ccccc23)c1`, for which the EC50 is > 11 µM (inactive).
The value for `CCOc1ccc(N2C(=O)/C(=C/c3ccco3)C(=O)NC2=S)cc1` was > 11 µM (inactive); that for `O=C1C(=Cc2cccn2-c2ccccc2)C(=O)c2ccccc21` was > 11 µM (inactive).
The value for `CCN1C(=O)/C(=C\N(C)C)NC1=S` was > 11 µM (inactive).
The value for `Cc1cccc2cc3c(N)c(C(=O)Nc4ccc(N5CCOCC5)cc4)sc3nc12` was > 11 µM (inactive); that for `CCC(=S)/C=C1\Sc2ccc3ccccc3c2N1CCCS(=O)(=O)O` was > 11 µM (inactive); that for `COc1ccc(-n2c(NNC(C)=O)nc3sc4c(c3c2=O)CCCC4)cc1` was > 11 µM (inactive).
With `Fc1ccc(CNc2nc(-c3ccccc3)nc3ccccc23)cc1`, the EC50 is > 11 µM (inactive).
Turning to `COc1ccccc1C(=O)Nc1ccnn1C1CCN(C(C)CSC)CC1` (configuration not stated), the EC50 is > 11 µM (inactive).
Regarding `COc1cc(/C=N/c2oc(-c3ccccc3)cc2C#N)ccc1O`, the EC50 was > 11 µM (inactive).
The value for `N#CC(C#N)=Cc1cccn1-c1ccc(C(=O)O)cc1` was > 11 µM (inactive); that for `O=C(NCc1ccncc1)C(=O)N/N=C/c1ccccn1` was > 11 µM (inactive).
Take `CCOC(=O)c1c(-n2c(C)cc(C=C3C(=O)NC(=O)NC3=O)c2C)sc2c1CCCC2`: the EC50 was > 11 µM (inactive).
On to `COc1ccc(N2C(=O)/C(=C/c3ccco3)C(=O)NC2=S)cc1`, for which the EC50 is > 11 µM (inactive).
The value for `O=C1NC(=S)N(c2ccc(F)cc2)C(=O)/C1=C/c1ccco1` was > 11 µM (inactive); that for `COc1ccc(C(=O)Nc2cc(C(C)=O)c(/C=C/N(C)C)oc2=O)cc1` was > 11 µM (inactive).
For the molecule `COc1ccc2c(c1)c1nc3ccccc3nc1n2CCCN1C(=O)c2ccccc2C1=O`, the EC50 was > 11 µM (inactive).
Consider `Cc1ccc(-c2cc(-c3ccco3)c(C#N)c(=O)[nH]2)cc1`, for which the EC50 is > 11 µM (inactive).
With `O=C(O)c1ccc2c3c(ncnc13)-c1ccccc1C2=O` the figure was > 11 µM (inactive); with `CCOC(=O)c1c2c3c(cccc3n(C)c1=O)C(=O)c1ccccc1-2`, > 11 µM (inactive).
With `Cc1cc2nc3ccc(N(C)C)cc3nc2cc1N` the figure was > 11 µM (inactive); with `CCN(CC)Cc1cc(O)c(CN(CC)CC)cc1O`, > 11 µM (inactive).
With `Cc1cc2nc3ccc(=[N+](C)C)cc-3sc2cc1N` the figure was > 11 µM (inactive).
With `Cc1nc2ccccc2c(=O)n1/N=C/c1ccc(O)c(O)c1O`, the EC50 is > 11 µM (inactive).
As to `CC1(OC(=O)CCc2ccccc2)C(=O)C=C2C=C(C3CC3)OC=C2C1=O` (configuration not stated), the EC50 was > 11 µM (inactive).
The value for `Cc1ccc2oc(=O)c(/C=C(\O)c3cccs3)nc2c1` was > 11 µM (inactive); that for `CCCn1c(=N)c(C(=O)NCC2CCCO2)cc2c(=O)n3cccc(C)c3nc21` (configuration not stated) was > 11 µM (inactive).
`N=C1C(c2nc3ccccc3[nH]2)=C(O)CN1c1ccc(CC(=O)O)cc1`: the EC50 was > 11 µM (inactive).
In the case of `CCn1c(CNC(=O)c2ccc(Cl)cc2)nnc1SCC(=O)N1CCOCC1`, the EC50 is > 11 µM (inactive).
`CC(=O)N(C1=C(Cl)C(=O)c2ccccc2C1=O)C1CCCCC1`: the EC50 is > 11 µM (inactive).
With `O=C(O)CCN1C(=O)/C(=C/c2ccc(-c3nc4ccccc4s3)o2)SC1=S` the figure was > 11 µM (inactive).
The value for `O=C(O)c1ccccc1NS(=O)(=O)c1ccc(NNC(=S)Nc2ccc(OC(F)F)cc2)c([N+](=O)[O-])c1` was > 11 µM (inactive).
Turning to `Cc1ccc(S(=O)(=O)C(C#N)c2nc3ccccc3nc2N2CC(C)OC(C)C2)cc1C` (configuration not stated), the EC50 is > 11 µM (inactive).
With `COc1ccccc1N1C(=O)S/C(=C\c2ccc(C)s2)C1=O` the figure was > 11 µM (inactive); with `N#CC(C(=O)NCc1ccccc1)c1nc2ccccc2nc1N1CCCC1` (configuration not stated), > 11 µM (inactive); with `CN(C)c1cc(-c2ccc([N+](=O)[O-])cc2)oc(=O)c1Cl`, > 11 µM (inactive).
With `Oc1[nH]c2ccc(Br)cc2c1N=Nc1nn[nH]n1` the figure was > 11 µM (inactive); with `CCNc1nn2ccccc2c1/C=C(\C#N)C(=O)OCC`, > 11 µM (inactive).
With `COc1ccc(-c2nnc(Nc3nc4c(OC)cccc4s3)o2)c(OC)c1` the figure was > 11 µM (inactive).
For `Cc1ccccc1N=Nc1c(O)n(C)c2ccccc12`, the EC50 was > 11 µM (inactive).
Take `CNc1nnc(-c2cc3ccccc3oc2=O)s1`: the EC50 is > 11 µM (inactive).
The value for `Cc1cc(/C=C2/C(=O)NC(=O)N(c3ccccc3)C2=O)c(C)n1-c1ccc(F)cc1` was > 11 µM (inactive); that for `CC(C)Sc1nsc2nc(=O)c(/C=C3\C=Nc4ccccc43)c(N)n12` was > 11 µM (inactive); that for `COc1ccc(-n2c(C)cc(/C=C3\SC(=S)N(Cc4ccco4)C3=O)c2C)cc1` was > 11 µM (inactive).
`Oc1ccc(/C=N/NC(=S)Nc2cccnc2)c(O)c1O`: the EC50 is > 11 µM (inactive).
For the molecule `O=[N+]([O-])c1ccc(N=Nc2ncc[nH]2)cc1`, the EC50 is > 11 µM (inactive).
With `CN(C)c1ccc(/C=N/N(CCC(=O)NC(C)(C)C)C2=NS(=O)(=O)c3ccccc32)cc1`, the EC50 is > 11 µM (inactive).
The value for `N#Cc1c(NC(=O)/C=C/C(=O)O)sc2c1CCN(Cc1ccccc1)C2` was > 11 µM (inactive); that for `Cc1ccc(C(=O)CSc2nc3c([nH]2)c(=O)n(C)c(=O)n3C)cc1` was > 11 µM (inactive); that for `CCOC(=O)COn1c(=O)c(-c2cc3ccccc3o2)[n+]([O-])c2ccccc21` was > 11 µM (inactive).
For the molecule `COc1ccc(NC(=O)c2sc3nc(-c4cccnc4)ccc3c2N)cc1OC`, the EC50 was > 11 µM (inactive).
Consider `CN1C(=O)/C(=C/c2ccc(N3CCCCCC3)o2)C(=O)NC1=S`, for which the EC50 is > 11 µM (inactive).
The value for `O=C(O)c1cc(-c2ccc(/C=N/Nc3ccc([N+](=O)[O-])cn3)o2)ccc1Cl` was > 11 µM (inactive); that for `CCN(CC)CCN1C(=O)C(O)=C(C(=O)c2cc3cccc(OC)c3o2)C1c1ccc(F)cc1` (configuration not stated) was > 11 µM (inactive).
With `CCN(CC)C(=O)CNc1ccc(C(F)(F)F)cc1[N+](=O)[O-]` the figure was > 11 µM (inactive).
With `O=c1[nH]c(=S)[nH]c2c1C(c1ccc(Br)cc1)c1c([nH]c(=S)[nH]c1=O)O2` the figure was > 11 µM (inactive); with `CC(=O)Nc1ccc(N/C=C/C(=O)c2ccc(C)o2)cc1`, > 11 µM (inactive); with `Cc1nc2sc(-c3ccccc3)cc2c(=O)n1N`, > 11 µM (inactive).
In the case of `COc1ccc(OC)c(C(=O)c2coc3ccc(O)c(CN4CCOCC4)c23)c1`, the EC50 is > 11 µM (inactive).
In the case of `N#C/C(=C\c1cc(O)c(O)c(O)c1)C(N)=O`, the EC50 was > 11 µM (inactive).
The value for `Cn1c(O)c(/C=C2/C=CC=N2)c(=O)[nH]c1=O` was > 11 µM (inactive).
Take `COc1ccc(-n2nc(C(=O)c3cccs3)cc(-c3nc4ccccc4[nH]3)c2=N)cc1`: the EC50 is > 11 µM (inactive).
With `COc1cc(/C=C2\CCc3c2nc2ccccc2c3C(=O)O)cc(OC)c1OC` the figure was > 11 µM (inactive); with `CCN(CC)C(=O)c1cc2c(=O)c3cc(Cl)ccc3oc2nc1C`, > 11 µM (inactive).
The value for `CCN1CCN(Cc2c(O)ccc3c2O/C(=C\c2ccc(C)cc2)C3=O)CC1` was > 11 µM (inactive); that for `O=C(/C=C/c1ccco1)NC(=S)Nc1ccc(C(=O)O)cc1` was > 11 µM (inactive).
For `CCOC(=O)c1cnc(-n2nc(C)cc2C)nc1NNc1nc(C)cc(C)n1`, the EC50 was > 11 µM (inactive).
With `Cc1ccc(N=Cc2sc(O)c3ccccc23)c(C)c1` the figure was > 11 µM (inactive).
In the case of `Cc1cnc(C(=O)NNC(=O)c2ccc(Br)cc2)cn1`, the EC50 is > 11 µM (inactive).
For the molecule `CN=c1scc(C)n1/N=C/c1ccc(O)c(O)c1O`, the EC50 was > 11 µM (inactive).
`CC1(C)CC(=O)C2=C(C1)OC(N)=C(C#N)C21C(=O)N(CN2CCOCC2)c2ccccc21` (configuration not stated): the EC50 was > 11 µM (inactive).
The value for `COc1ccccc1NC(=O)c1sc2nc(Cc3ccccc3)cc(C(F)(F)F)c2c1N` was > 11 µM (inactive); that for `COc1ccc(-n2c(O)c(/C=C3\C=Nc4ccc(Br)cc43)c(=O)[nH]c2=O)c(OC)c1` was > 11 µM (inactive).
Take `O=c1ccc2[n+]([O-])c3ccc(O)cc3oc-2c1`: the EC50 was > 11 µM (inactive).
For `CCOc1ccccc1-n1c(O)c(C=Nc2ccc(N(CC)CC)cc2)c(=O)[nH]c1=O`, the EC50 is > 11 µM (inactive).
With `COc1ccc(/C=c2\sc3nc(-c4ccccc4OC)nn3c2=O)c(OC)c1`, the EC50 was > 11 µM (inactive).
As for `O=C(O)c1cc(-c2ccc(/C=C3\NC(=O)N(c4ccc(Cl)cc4)C3=O)o2)ccc1Cl`, the EC50 was > 11 µM (inactive).
On to `COC(=O)c1cc(C(=O)OC)cc(-n2c(C)cc(C=O)c2C)c1`, for which the EC50 was > 11 µM (inactive).
The value for `Cc1nc(S/C(=C/c2ccc(-c3cc(Cl)ccc3C)o2)C(=O)O)n[nH]1` was > 11 µM (inactive); that for `CN1C(=O)/C(=C/C=C/c2ccco2)C(=O)NC1=S` was > 11 µM (inactive); that for `c1ccc2oc(CCc3nc4ccccc4o3)nc2c1` was > 11 µM (inactive).
In the case of `C=CCN1C(=O)NC(=O)/C(=C/C=C/c2ccccc2)C1=O`, the EC50 is > 11 µM (inactive).
The value for `NC1=CC(=O)c2cccc3cccc1c23` was > 11 µM (inactive).
